Calls of active or inactive are those of the source. No cut-off for these calls is given here.

In ChEMBL document CHEMBL3414499, “Characterization of two distinct structural classes of selective aldehyde dehydrogenase 1A1 inhibitors” (J Med Chem, 2015) one finds Activity data, which are given here for one molecule.

In assay [1] the target is T1, Succinate-semialdehyde dehydrogenase, mitochondrial (Homo sapiens) (UniProt P51649).
T1 sequence (whole entry): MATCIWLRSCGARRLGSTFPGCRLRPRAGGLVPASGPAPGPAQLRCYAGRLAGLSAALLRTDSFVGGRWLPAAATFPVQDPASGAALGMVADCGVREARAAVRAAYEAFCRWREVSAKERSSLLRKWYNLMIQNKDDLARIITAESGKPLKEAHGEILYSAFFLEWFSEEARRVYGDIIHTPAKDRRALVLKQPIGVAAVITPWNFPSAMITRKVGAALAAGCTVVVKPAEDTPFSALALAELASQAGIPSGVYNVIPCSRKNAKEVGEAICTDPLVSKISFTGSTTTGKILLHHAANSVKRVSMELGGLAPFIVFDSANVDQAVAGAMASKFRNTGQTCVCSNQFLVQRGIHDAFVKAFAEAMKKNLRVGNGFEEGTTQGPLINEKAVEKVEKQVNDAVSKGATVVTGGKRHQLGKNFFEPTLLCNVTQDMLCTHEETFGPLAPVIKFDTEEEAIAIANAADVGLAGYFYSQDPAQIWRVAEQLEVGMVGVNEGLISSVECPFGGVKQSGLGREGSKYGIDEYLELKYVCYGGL
As to the kind of experiment: Effect on human ALDH5A1 at 20 uM preincubated for 2 mins with NAD+ followed by aldehyde substrate addition.

Assay [2] has as its target T2, Aldehyde dehydrogenase, mitochondrial (Homo sapiens) (UniProt P05091).
T2 sequence (whole entry): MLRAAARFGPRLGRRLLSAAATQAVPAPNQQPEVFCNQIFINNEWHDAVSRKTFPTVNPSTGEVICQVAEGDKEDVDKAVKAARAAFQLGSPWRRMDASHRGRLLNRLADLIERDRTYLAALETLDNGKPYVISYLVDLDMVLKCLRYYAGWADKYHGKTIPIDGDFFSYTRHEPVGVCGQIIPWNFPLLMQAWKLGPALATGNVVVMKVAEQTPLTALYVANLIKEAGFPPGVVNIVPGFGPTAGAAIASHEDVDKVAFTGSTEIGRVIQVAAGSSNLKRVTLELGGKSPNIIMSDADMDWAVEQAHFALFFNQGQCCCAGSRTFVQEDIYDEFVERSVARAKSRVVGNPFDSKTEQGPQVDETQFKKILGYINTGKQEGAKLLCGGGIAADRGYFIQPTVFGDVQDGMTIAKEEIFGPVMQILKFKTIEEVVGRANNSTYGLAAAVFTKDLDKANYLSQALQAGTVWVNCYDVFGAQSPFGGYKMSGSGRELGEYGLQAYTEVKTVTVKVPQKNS
As to the kind of experiment: Effect on recombinant human ALDH2 using propionaldehyde as substrate at 20 uM preincubated for 2 mins with NAD+ followed by substrate addition by UV-Vis spectrophotometric analysis.

Regarding `CC(C)CCn1c(CN2CCN(C(=O)c3ccco3)CC2)nc2c1c(=O)n(C)c(=O)n2C`, the result in assay [1] and in assay [2] was inactive.
